Earlier results on 1 compound are cited in US10640803B2, “Methods for determining chemosensitivity and chemotoxicity” (priority 2013, dated 2020).

This series relates to CLL patients. The settings on record: caused the halt of the study.

For the compound `CC1(C)CCC(c2ccc(Cl)cc2)=C(CN2CCN(c3ccc(C(=O)NS(=O)(=O)c4ccc(N[C@H](CCN5CCOCC5)CSc5ccccc5)c(S(=O)(=O)C(F)(F)F)c4)cc3)CC2)C1` [ABT-263], the “adverse event in the study” value is listed as “occurrence of tumor lysis syndrome”.
